Entries after “also recorded” stand apart in the source; their conditions may differ. Like-named read-outs stand apart in the source and are kept apart here.
Legend:
Experiment in all cases: High-throughput fluorescence-based DNA joining (ligation) assay
Type in all cases: biochemical
[1] = target: T1, hLigI (Homo sapiens, UniProt P18858); conditions: for inhibition of hLigI (DNA ligase I), in words: in vitro screen, 100 μmol/L, the 15 hLigI inhibitors inhibited by >50%
T1 construct: made in house
Method in brief: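 Nicked DNA substrate (10 pmol) was incubated with 0.25 pmol hLigI, with or without 100 μmol/L test compound, in duplicate. Afterwards the DNA was denatured and renatured with a 20-fold excess of unmodified oligonucleotide. Ligation forms an AF488/BHQ1 hairpin, read as reduced fluorescence at 518 nm.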

[2] = target: T2, human DNA ligase III (Homo sapiens, UniProt P49916); conditions: for inhibition of human DNA ligase III, in words: in vitro screen
T2 sequence (P49916 1-862 isoform P49916-4): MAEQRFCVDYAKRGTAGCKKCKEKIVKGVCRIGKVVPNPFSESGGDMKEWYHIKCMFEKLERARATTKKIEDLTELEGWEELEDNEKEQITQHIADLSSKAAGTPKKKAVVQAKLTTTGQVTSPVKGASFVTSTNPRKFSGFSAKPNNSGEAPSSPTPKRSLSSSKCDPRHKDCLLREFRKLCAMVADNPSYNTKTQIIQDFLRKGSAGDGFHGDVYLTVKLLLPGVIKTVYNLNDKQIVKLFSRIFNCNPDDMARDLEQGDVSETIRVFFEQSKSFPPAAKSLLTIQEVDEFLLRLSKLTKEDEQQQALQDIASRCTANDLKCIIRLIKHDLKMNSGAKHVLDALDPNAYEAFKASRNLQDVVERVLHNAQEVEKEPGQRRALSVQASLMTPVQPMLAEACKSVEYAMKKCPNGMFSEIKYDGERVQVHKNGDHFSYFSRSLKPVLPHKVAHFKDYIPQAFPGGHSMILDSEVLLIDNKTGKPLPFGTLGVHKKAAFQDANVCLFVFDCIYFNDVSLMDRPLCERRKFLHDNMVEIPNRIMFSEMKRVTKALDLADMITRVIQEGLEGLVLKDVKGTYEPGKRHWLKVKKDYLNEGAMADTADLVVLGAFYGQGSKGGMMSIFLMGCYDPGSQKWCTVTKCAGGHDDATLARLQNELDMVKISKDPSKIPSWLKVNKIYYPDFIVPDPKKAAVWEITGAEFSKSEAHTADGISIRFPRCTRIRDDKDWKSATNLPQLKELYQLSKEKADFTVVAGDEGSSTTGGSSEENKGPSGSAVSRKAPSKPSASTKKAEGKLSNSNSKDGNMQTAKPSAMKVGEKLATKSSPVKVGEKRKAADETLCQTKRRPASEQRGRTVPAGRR
Method in brief: (§1)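 Ligation joins an AF488-labelled and a BHQ1-labelled oligonucleotide. After denaturation and renaturation with a 20-fold excess of unlabelled competitor strand, the product forms a quenched hairpin, so joining is read as loss of 518 nm fluorescence. Ligase III used a nicked duplex; ligase IV used two duplexes with short complementary single-strand ends.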

[3] = target: human DNA ligase IV (Homo sapiens, UniProt P49917); conditions: for inhibition of human DNA ligase IV, in words: in vitro screen
Method in brief: as §1

[4] = 100 uM, read-out: % activity Inhibition hLigI 100 uM
[5] = 100 μM, read-out: % of inhibition @ 100 μM (Helen's data) hLigI
[6] = 100 μM, read-out: In vitro % inhib hLigI 100
[7] = 100 μM, read-out: In vitro % inhib hLigIII 100
[8] = 100 uM, Ø not defined (0 in Table 5A)
[9] = read-out: % of inhibition @ 100 μM (Helen's data) hLigIII
[10] = 100 μM, read-out: % of inhibition @ 100 μM (Helen's data) hLigIV
[11] = 100 μM, read-out: In vitro % inhib hLigIV 100
[12] = 100 uM, Ø not defined (0 in Table 5A), read-out: % activity Inhibition hLigIII 100 uM
[13] = 100 uM, Ø not defined (0 in Table 5A), read-out: % activity Inhibition hLigIV 100 uM

T1 sequence (P18858 whole entry): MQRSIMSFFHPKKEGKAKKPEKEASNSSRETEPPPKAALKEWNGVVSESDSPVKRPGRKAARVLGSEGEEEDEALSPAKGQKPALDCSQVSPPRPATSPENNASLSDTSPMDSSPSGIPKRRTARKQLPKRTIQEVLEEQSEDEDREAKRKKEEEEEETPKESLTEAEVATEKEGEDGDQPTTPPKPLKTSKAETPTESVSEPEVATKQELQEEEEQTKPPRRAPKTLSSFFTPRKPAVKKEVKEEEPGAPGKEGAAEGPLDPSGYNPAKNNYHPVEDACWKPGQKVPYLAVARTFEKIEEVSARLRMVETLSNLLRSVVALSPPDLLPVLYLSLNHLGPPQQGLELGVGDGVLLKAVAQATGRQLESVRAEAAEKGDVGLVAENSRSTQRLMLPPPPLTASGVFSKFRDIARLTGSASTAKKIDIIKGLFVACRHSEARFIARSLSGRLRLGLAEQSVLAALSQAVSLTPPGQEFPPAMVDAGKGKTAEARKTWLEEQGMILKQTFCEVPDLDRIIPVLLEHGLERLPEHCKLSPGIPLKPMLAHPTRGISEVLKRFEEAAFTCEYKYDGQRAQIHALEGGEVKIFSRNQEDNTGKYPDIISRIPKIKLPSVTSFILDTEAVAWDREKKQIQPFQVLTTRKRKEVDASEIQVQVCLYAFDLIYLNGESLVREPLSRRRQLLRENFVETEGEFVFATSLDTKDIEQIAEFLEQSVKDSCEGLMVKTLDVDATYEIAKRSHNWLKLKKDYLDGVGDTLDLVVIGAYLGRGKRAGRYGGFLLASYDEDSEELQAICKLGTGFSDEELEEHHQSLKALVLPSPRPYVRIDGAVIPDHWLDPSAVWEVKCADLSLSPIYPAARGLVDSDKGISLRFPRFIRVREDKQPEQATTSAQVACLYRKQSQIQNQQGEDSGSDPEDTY
Chain of human DNA ligase IV (P49917 whole entry): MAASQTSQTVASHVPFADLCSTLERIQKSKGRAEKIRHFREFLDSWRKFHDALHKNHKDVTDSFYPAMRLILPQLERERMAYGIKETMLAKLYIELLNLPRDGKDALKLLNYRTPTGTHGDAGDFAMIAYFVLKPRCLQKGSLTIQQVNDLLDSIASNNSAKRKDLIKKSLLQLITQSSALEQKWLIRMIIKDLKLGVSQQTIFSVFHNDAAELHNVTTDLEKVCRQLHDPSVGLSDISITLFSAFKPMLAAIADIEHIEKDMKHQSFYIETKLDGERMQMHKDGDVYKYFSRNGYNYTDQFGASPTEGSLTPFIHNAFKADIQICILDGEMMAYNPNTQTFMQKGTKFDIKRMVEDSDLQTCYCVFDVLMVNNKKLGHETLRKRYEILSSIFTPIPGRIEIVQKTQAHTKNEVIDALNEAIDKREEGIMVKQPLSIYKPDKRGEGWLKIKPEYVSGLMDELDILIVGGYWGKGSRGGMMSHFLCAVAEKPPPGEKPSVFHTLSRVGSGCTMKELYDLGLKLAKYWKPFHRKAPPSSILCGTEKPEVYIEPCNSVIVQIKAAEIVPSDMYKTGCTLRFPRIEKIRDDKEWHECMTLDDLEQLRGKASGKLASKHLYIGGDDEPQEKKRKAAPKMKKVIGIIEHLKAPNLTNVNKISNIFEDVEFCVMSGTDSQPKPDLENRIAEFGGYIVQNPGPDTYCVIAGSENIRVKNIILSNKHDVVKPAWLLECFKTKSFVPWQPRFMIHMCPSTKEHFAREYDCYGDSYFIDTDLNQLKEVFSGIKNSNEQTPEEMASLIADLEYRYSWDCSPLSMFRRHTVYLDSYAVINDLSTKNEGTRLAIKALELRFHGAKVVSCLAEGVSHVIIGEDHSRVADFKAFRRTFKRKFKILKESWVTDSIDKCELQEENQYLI
Chain of human DNA ligase IV (Q13426 whole entry partner): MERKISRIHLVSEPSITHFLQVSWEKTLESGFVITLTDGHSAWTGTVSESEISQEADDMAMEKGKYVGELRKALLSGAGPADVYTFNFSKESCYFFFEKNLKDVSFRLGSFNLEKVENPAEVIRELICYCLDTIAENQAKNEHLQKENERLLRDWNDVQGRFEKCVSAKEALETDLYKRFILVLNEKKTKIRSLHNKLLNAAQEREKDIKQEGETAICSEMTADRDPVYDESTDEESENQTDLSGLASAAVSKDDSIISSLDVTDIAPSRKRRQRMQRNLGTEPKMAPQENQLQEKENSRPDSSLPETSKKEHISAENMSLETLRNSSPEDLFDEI

Row | SMILES | inhibition at 100 µM [1, 4] [%] | inhibition at 100 µM [1, 5] [%] | inhibition at 100 µM [1, 6] [%] | inhibition of hLigI (DNA ligase I), in words [1] | inhibition at 100 µM [2, 7] [%] | % activity Inhibition hLigIII 100 uM [2, 8] | inhibition at 100 µM [2, 9] [%] | inhibition at 100 µM [3, 10] [%] | inhibition at 100 µM [3, 11] [%] | % activity Inhibition hLigIV 100 uM [3, 8] | inhibition at 100 µM [2, 12] [%] | inhibition of human DNA ligase III, in words [2] | inhibition of human DNA ligase IV, in words [3] | also measured
1 | O=C(Cn1cnc([N+](=O)[O-])n1)N/N=C/c1ccc(O)cc1O [Compound 151] | 25.9 ± 1.2 | 25 | 26 ± 1 | specific for DNA ligase I | 0 | Ø | < 20 | < 20 | 0 | Ø |  |  |  | 
2 | O=C(O)CSc1cc(Cl)c2nonc2c1[N+](=O)[O-] [Compound 64] | 60.6 ± 0.54 | 61 | 61 ± 1 | inhibited hLigI; also recorded: inhibit all three human DNA ligases | 49 ± 1 |  | 49 | 52 | 52 ± 1 |  | 48.5 ± 0.1 | inhibit all three human DNA ligases | inhibit all three human DNA ligases | inhibition at 100 µM [3, 13]: 51.9 ± 1.2%
3 | Cc1c(Br)cc(NCC(=O)N/N=C\c2cc([N+](=O)[O-])ccc2O)cc1Br [Compound 67] | 78.3 ± 8.5 | 78 | 78 ± 8 | inhibited hLigI; also recorded: inhibit hLigI but not T4 DNA ligase; also recorded: specifically inhibit DNA ligases I and III; also recorded: inhibit DNA ligase 1; also recorded: inhibits both hLigI and hLigIII | 88 ± 12 |  | 88 | < 20 | 0 | Ø | 88.2 ± 11.6 | specifically inhibit DNA ligases I and III; also recorded: inhibits DNA ligase III; also recorded: inhibits both hLigI and hLigIII | do not inhibit DNA ligase IV | 
4 | C/C(O)=C1/C(=O)N(c2nc3ccccc3s2)N=C1c1ccccc1 [Compound 43] | 29.2 ± 3.5 |  | 29 ± 4 | specific for DNA ligase I | 0 | Ø |  |  | 0 | Ø |  |  |  | 
5 | COc1ccc(-c2cnc3c(O)nc(O)nc3n2)cc1 [Compound 190] | 52.5 ± 6.6 |  | 53 ± 7 | inhibited hLigI; also recorded: specific for DNA ligase I | 0 | Ø |  |  | 0 | Ø |  |  |  | 
6 | O=c1[nH]ncc(N/N=C\c2ccc(O)c([N+](=O)[O-])c2)c1Cl [Compound 82] | 59.8 ± 1.7 |  | 60 ± 2 | inhibited hLigI; also recorded: inhibit hLigI but not T4 DNA ligase; also recorded: specific for DNA ligase I; also recorded: inhibit DNA ligase 1; also recorded: only inhibits DNA ligase I; also recorded: inhibits only hLigI | 29 ± 7 |  |  |  | 0 | Ø | 29.2 ± 7.3 |  | do not inhibit DNA ligase IV | 
7 | Nc1nc(S)nc(O)c1/N=C/c1ccccc1 [Compound 189] | 68.8 ± 4.9 |  | 69 ± 5 | inhibited hLigI; also recorded: inhibit hLigI but not T4 DNA ligase; also recorded: inhibits all three human DNA ligases; also recorded: inhibit DNA ligase 1 | 53 ± 5 |  |  |  | 41 ± 6 |  | 52.6 ± 4.8 | inhibits all three human DNA ligases; also recorded: inhibits DNA ligase III | inhibits all three human DNA ligases; also recorded: inhibits DNA ligase IV | inhibition at 100 µM [3, 13]: > 50%
8 | CS(=O)(=O)NNC(=O)C(=O)NNc1ccccc1 [Compound 184] |  |  |  | specific for DNA ligase I |  | Ø |  |  |  | Ø |  |  |  | % activity Inhibition hLigI 100 uM ([1]; 100 uM): 37.7 ± 12.4%; % of inhibition @ 100 μM (Helen's data) hLigI ([1]; 100 μM): 38%; In vitro % inhib hLigI 100 (μM) ([1]; 100 μM): 38 ± 12%; % of inhibition @ 100 μM (Helen's data) hLigIII ([2]; 100 μM): NI (NI- no inhibition); In vitro % inhib hLigIII 100 (μM) ([2]; 100 μM): 0%; % of inhibition @ 100 μM (Helen's data) hLigIV ([3]; 100 μM): NI (NI- no inhibition); In vitro % inhib hLigIV 100 (μM) ([3]; 100 μM): 0%
9 | O=C1Nc2ccccc2Oc2cc([N+](=O)[O-])cc([N+](=O)[O-])c21 [Compound 180] |  |  |  | inhibited hLigI |  |  | > 40 |  |  |  |  |  |  | inhibition at 100 µM ([1]; read-out: % of inhibition @ 100 μM (Helen's data) hLigI): 58%; inhibition at 100 µM ([3]; read-out: % of inhibition @ 100 μM (Helen's data) hLigIV): < 20%
10 | CCCCC(=O)c1ccc(O)cc1O [Compound 213] | 36.4 ± 8.6 |  | 36 ± 9 | specifically inhibit DNA ligases I and III | 25 ± 1 |  |  |  | 0 | Ø | 25.2 ± 0.46 | specifically inhibit DNA ligases I and III |  | 
11 | O=C(c1ccc(O)cc1)c1ccccc1O [Compound 200] | 50.7 ± 10.9 | 51 | 51 ± 11 | inhibited hLigI; also recorded: specifically inhibit DNA ligases I and III | 60 ± 5 |  | 60 | < 20 | 0 | Ø | 59.5 ± 5.2 | specifically inhibit DNA ligases I and III |  | 
12 | Cc1oc(C(=O)O)cc1CSCc1cc(C(=O)O)c(C)o1 [Compound 197] | 91 ± 6.9 | 91 | 91 ± 7 | inhibited hLigI; also recorded: inhibit all three human DNA ligases | 96 ± 4 |  | 97 | 57 | 57 ± 3 |  | 96.5 ± 3.5 | inhibit all three human DNA ligases | inhibit all three human DNA ligases | inhibition at 100 µM [3, 13]: > 60%

Reference: US9757375B2, “Compounds that inhibit human DNA ligases and methods of treating cancer” (University of Maryland, Baltimore, priority 2007, dated 2017)
